Experimental data published in paper PMC12339328, “Therapeutic effect and mechanism of gigantol on hyperuricemia” (Frontiers in Endocrinology, 2025).
Values joined by “and” are separate entries in the source; they are usually repeats but may differ in a detail not shown here. Equal entries are not always repeated. Where two headings read alike, the source gives them in different places.

Key:
IL-6 [1] = assay: IL-6 level in HK-2 HUA cell model (ELISA); type: cell-based, human; conditions: adenosine and XOD induction; gigantol 25, 50, 100 μmol/L
Protocol: (§1) HK-2 cells were treated as described above. The supernatant of the medium was collected, and the levels of proinflammatory cytokines (TNF-α, IL-6, and IL-1β) and the NLRP3 inflammasome component in the supernatant were detected using commercially available ELISA kits according to the manufacturers’ protocols.

OAT1 [2] = assay: OAT1 protein expression in kidney of HUA mice (Western blot); conditions: gigantol medium-dose and high-dose groups (10, 20 mg/kg), vs model group, p < 0.01
caspase-1 = assay: Caspase-1 protein expression in kidney of HUA mice (Western blot); type: in vivo; conditions: gigantol high-dose group (20 mg/kg), vs model group, p < 0.001
OAT3 = OAT3 protein expression in kidney of HUA mice (Western blot); conditions: vs model group
IL-1β [3] = assay: IL-1β content in serum and kidney of HUA mice (ELISA); type: in vivo; conditions: gigantol low, medium, high dose intragastric, vs model group
Protocol: (§2) Blood obtained from mice in each group was centrifuged at 3,000 r/min for 15 min in a low-temperature high-speed centrifuge. Then, the serum was separated, and the levels of UA, CRE, and BUN in the serum were measured by the kits. The levels of TNF-α, IL-1β, IL-6, and NLRP3 in serum were detected by ELISA kits. Liver and kidney tissues were homogenized by adding ice-cold saline, and homogenates were centrifuged at 12,000 r/min for 10 min. XOD activity in the supernatant of the liver tissues was measured, and the levels of TNF-α, IL-1β, IL-6, and NLRP3 in the supernatant of the kidney tissues were measures by ELISA kits.

ASC [4] = assay: ASC protein expression in kidney of HUA mice (Western blot); type: in vivo; conditions: gigantol high-dose group (20 mg/kg), vs model group, p < 0.001
GLUT9 = GLUT9 protein expression in HK-2 cells (Western blot); conditions: for GLUT (GLUT9) / β (reference protein) ratio / GLUT (GLUT9) protein expression, band value: HK-2, replicates 1-3; for GLUT9 protein expression in HK-2 cells: HUA cell model, gigantol 25, 50, 100 µmol/L, especially high-dose (p < 0.001), vs model
[5] = test system: renal tissue in mice with HUA; assay: Renal histopathology of HUA mice (HE staining); type: in vivo; conditions: 200×, gigantol-treated groups
From the text: (§3) The kidney and liver tissues were fixed with 4% paraformaldehyde solution. After paraffin embedding and sectioning, the paraffin on the slide was removed with xylene and soaked in different concentrations of ethanol and deionized water. The liver and kidney tissues were stained according to the HE staining procedure, and then the morphology of the kidney tissues and liver tissues was observed under the microscope.

[6] = test system: mice with HUA induced by potassium oxonate; assay: Serum and urine UA, CRE and BUN in HUA mice; type: in vivo
Protocol: On day 6, the mice were transferred to a metabolic cage, given free water and diet, and 24-h urine samples were collected for the determination of UA, CRE, and BUN levels. One hour after the last administration, 2 mL of blood was taken through eyeball extraction, and the mice were killed by euthanasia. Mice were dissected and the livers and kidneys were removed.
as §2

IL-1β [7] = assay: IL-1β content in HK-2 HUA cell model (ELISA); type: cell-based, human; conditions: only the high-dose group showing a downward trend (p < 0.01)
Protocol: as §1

[8] = test system: liver tissue in mice with HUA; assay: Liver histopathology of HUA mice (HE staining); type: in vivo; conditions: 200×, gigantol 5, 10, 20 mg/kg
From the text: as §3

OAT1 [9] = assay: OAT1 protein expression in HK-2 cells (Western blot); conditions: for OAT1 / β (reference protein) ratio / OAT1 protein expression, band value: HK-2, replicates 1-3
ASC [10] = assay: ASC protein expression in HK-2 cells (Western blot); conditions: for asc / β (reference protein) ratio / asc protein expression, band value: HK-2, replicates 1-3; for ASC protein level in HK-2 cells: HUA cell model
NLRP3 [11] = assay: NLRP3 protein expression in kidney of HUA mice (Western blot); type: in vivo; conditions: gigantol high-dose group (20 mg/kg), vs model group, p < 0.01
AML12 cells = assay: UA level in AML12 HUA cell model; type: cell-based, mouse; conditions: adenosine + XOD induced; gigantol 25, 50, 100 μmol/L; p < 0.001
IL-6 [12] = assay: IL-6 level in serum and kidney of HUA mice (ELISA); type: in vivo; conditions: HUA mice treated with gigantol; vs model group; p < 0.01
Protocol: as §2

HK-2 cells = assay: UA level in HK-2 HUA cell model; type: cell-based, human; conditions: adenosine + XOD induced; gigantol 25, 50, 100 μmol/L; p < 0.001
NLRP3 [13] = assay: NLRP3 content in HK-2 HUA cell model (ELISA); type: cell-based, human; conditions: gigantol 25, 50, 100 µmol/L, dose-dependent
Protocol: as §1

[14] = rat, in vivo
Protocol: Whole blood was taken into heparinized tubes at predefined time points (2, 5, 10, 20, and 30 min, and 1, 2, 4, 6, 8, and 12 h) after administration, and plasma was separated by centrifugation and stored at −20°C until testing. […] Whole blood was taken into heparinized tubes at predefined time points (2, 5, 10, 20, and 30 min, and 1, 2, 4, 6, 8, and 12 h) after administration, and plasma was separated by centrifugation and stored at −20°C until testing. […] Pharmacokinetic parameters were calculated by using the pharmacokinetics software WinNonlin 8.1.

NLRP3 [15] = assay: NLRP3 protein expression in HK-2 cells (Western blot); conditions: for NLRP3 / β (reference protein) ratio / NLRP3 protein expression, band value: HK-2, replicates 1-3; for NLRP3 protein level in HK-2 cells: HUA cell model
XOD = conditions: for xod / β (reference protein) ratio / xod protein expression, band value: AML12, replicates 1-3; for XOD protein expression in AML12 cells: HUA cell model, gigantol 25, 50, 100 µmol/L, vs model group, p < 0.001
TNF-α = TNF-α level in serum and kidney of HUA mice (ELISA); type: in vivo; conditions: HUA mice treated with gigantol; vs model group; p < 0.01
Protocol: as §2

[16] = 24-h urine, after gigantol treatment
[17] = gigantol 5, 10, 20 mg/kg gavage 7 days, vs model group, high dose p < 0.001
[18] = 50 and 100 µmol/L gigantol, vs model group
[19] = gigantol intervention, especially high-dose group (p < 0.001), vs model

## 5-[2-(3-hydroxy-5-methoxyphenyl) ethyl]-2-methoxyphenol [gigantol]
IL-6 [1]
  IL-6 level in HK-2 cells: tended to decrease dose-dependently
OAT1 [2]
  OAT1 protein expression in kidney: increased
caspase-1
  caspase-1 protein expression in kidney: decreased significantly
OAT3; gigantol low-dose group (5 mg/kg)
  OAT3 protein expression in kidney: not in the low-dose group
OAT3; gigantol medium-dose and high-dose groups (10, 20 mg/kg), p < 0.05
  OAT3 protein expression in kidney: increased
IL-1β [3]
  IL-1β level in kidney: decreased
  IL-1β level in serum: decreased
ASC [4]
  ASC protein expression in kidney: decreased significantly
GLUT9; 中 = gigantol 50 µmol/L
  GLUT (GLUT9) / β (reference protein) ratio: 0.824 and 0.7786 and 0.7289
  GLUT (GLUT9) protein expression, band value: 143.264 and 144.598 and 138.372
GLUT9; 低 = gigantol 25 µmol/L
  GLUT (GLUT9) / β (reference protein) ratio: 0.9479 and 0.8166 and 0.8642
  GLUT (GLUT9) protein expression, band value: 156.942 and 153.38 and 155.361
GLUT9; 高 = gigantol 100 µmol/L
  GLUT (GLUT9) / β (reference protein) ratio: 0.7095 and 0.5035 and 0.629
  GLUT (GLUT9) protein expression, band value: 132.094 and 98.555 and 122.472
GLUT9
  GLUT9 protein expression in HK-2 cells: significantly decreased
GLUT9; listed as Gigantol
  GLUT9 protein expression in HK-2 cells: decreased
[5]
  renal histopathology: glomerulus injury: a trend of recovery in the injury of the glomerulus
  renal histopathology: urate crystals: no urate crystals in the renal tubules
[6]; [16]
  urine BUN level: increased
  urine CRE level: increased
[6]; 24-h urine, gigantol 5, 10, 20 mg/kg gavage, vs model group, p < 0.01
  urine UA content: increased significantly in a dose-dependent manner
[6]; [17]
  serum BUN level: significantly reduced
  serum CRE level: significantly reduced
  serum UA level: significantly reduced
IL-1β [7]
  inhibitory effect on IL-1β in HK-2 cells: relatively weak
[8]
  liver histopathology: the atrophy of liver cells significantly improved
OAT1 [9]; 中 = gigantol 50 µmol/L
  OAT1 / β (reference protein) ratio: 1.086 and 1.108 and 1.097
  OAT1 protein expression, band value: 188.76 and 205.851 and 208.271
OAT1 [9]; 低 = gigantol 25 µmol/L
  OAT1 / β (reference protein) ratio: 1.029 and 1.058 and 0.975
  OAT1 protein expression, band value: 170.32 and 198.69 and 175.271
OAT1 [9]; 高 = gigantol 100 µmol/L
  OAT1 / β (reference protein) ratio: 1.06 and 1.0745 and 1.075
  OAT1 protein expression, band value: 197.371 and 210.308 and 209.271
OAT1 [9]; HUA cell model, 50 and 100 µmol/L, vs model group
  OAT1 protein level in HK-2 cells: significantly increased
OAT1 [9]; HUA cell model, gigantol 25, 50, 100 µmol/L, dose-dependent
  OAT1 protein expression in HK-2 cells: increase
ASC [10]; 中 = gigantol 50 µmol/L
  asc / β (reference protein) ratio: 0.7729 and 0.7908 and 0.8759
  asc protein expression, band value: 134.385 and 146.868 and 166.261
ASC [10]; 低 = gigantol 25 µmol/L
  asc / β (reference protein) ratio: 0.9783 and 1.053 and 1.058
  asc protein expression, band value: 161.976 and 197.704 and 190.261
ASC [10]; 高 = gigantol 100 µmol/L
  asc / β (reference protein) ratio: 0.7353 and 0.6853 and 0.7512
  asc protein expression, band value: 136.893 and 134.134 and 146.281
ASC [10]; [18]
  ASC protein level in HK-2 cells: significantly reduced
ASC [10]; [19]
  ASC protein level in HK-2 cells: decreased significantly
NLRP3 [11]
  NLRP3 protein expression in kidney: decreased significantly
AML12 cells
  UA level in AML12 cells: suppressed
IL-6 [12]
  renal IL-6 level: significantly lower
  serum IL-6 level: significantly lower
HK-2 cells
  UA level in HK-2 cells: suppressed
NLRP3 [13]
  NLRP3 in HK-2 cells: significantly reduced
[14]
  F: 16.82%
  time of second peak of blood concentration: approximately 2 h
NLRP3 [15]; 中 = gigantol 50 µmol/L
  NLRP3 / β (reference protein) ratio: 0.7212 and 0.9246 and 0.7381
  NLRP3 protein expression, band value: 125.385 and 171.712 and 140.12
NLRP3 [15]; 低 = gigantol 25 µmol/L
  NLRP3 / β (reference protein) ratio: 0.7726 and 0.9621 and 1.043
  NLRP3 protein expression, band value: 127.912 and 180.721 and 187.495
NLRP3 [15]; 高 = gigantol 100 µmol/L
  NLRP3 / β (reference protein) ratio: 0.5752 and 0.7261 and 0.6462
  NLRP3 protein expression, band value: 107.093 and 142.123 and 125.837
NLRP3 [15]; 25 μmol/L gigantol, vs model group
  NLRP3 protein level in HK-2 cells: moderately reduced
NLRP3 [15]; [18]
  NLRP3 protein level in HK-2 cells: significantly reduced
NLRP3 [15]; [19]
  NLRP3 protein level in HK-2 cells: decreased significantly
XOD; 中 = gigantol 50 µmol/L
  xod / β (reference protein) ratio: 1.517 and 1.501 and 1.526
  xod protein expression, band value: 128.129 and 199.117 and 168.261
XOD; 低 = gigantol 25 µmol/L
  xod / β (reference protein) ratio: 1.791 and 1.55 and 1.796
  xod protein expression, band value: 141.242 and 241.421 and 177.271
XOD; 高 = gigantol 100 µmol/L
  xod / β (reference protein) ratio: 1.329 and 1.446 and 1.393
  xod protein expression, band value: 108.633 and 187.088 and 176.298
XOD
  XOD protein expression in AML12 cells: significantly decreased
XOD; listed as Gigantol
  XOD protein expression in AML12 cells: downregulated
XOD; listed as gigatol
  XOD protein expression in AML12 cells: significantly reduced in a dose-dependent manner
TNF-α
  renal TNF-α level: significantly lower
  serum TNF-α level: significantly lower
